Assay results from PubChem BioAssay (NCI).
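1) Cells in 96-well plates. 2) Compound, 48 h, 5 concentrations. 3) Linear interpolation between surrounding doses. 4) Unreached endpoint = highest concentration. The concentration for full growth arrest is given as TGI.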

Legend:
Test in all cases: DTP human tumour cell line panel, 48 h
786-0 renal = test system: 786-0 renal
A498 renal = test system: A498 renal
A549 NSCLC = test system: A549 NSCLC
ACHN renal = test system: ACHN renal
CCRF-CEM leukemia = test system: CCRF-CEM leukemia
COLO 205 colon = test system: COLO 205 colon
DLD-1 colon = test system: DLD-1 colon
DMS 114 small cell lung = test system: DMS 114 small cell lung
DMS 273 small cell lung = test system: DMS 273 small cell lung
EKVX NSCLC = test system: EKVX NSCLC
HCC-2998 colon = test system: HCC-2998 colon
HCT-116 colon = test system: HCT-116 colon
HCT-15 colon = test system: HCT-15 colon
HL-60(TB) leukemia = test system: HL-60(TB) leukemia
HOP-18 NSCLC = test system: HOP-18 NSCLC
HOP-62 NSCLC = test system: HOP-62 NSCLC
HOP-92 NSCLC = test system: HOP-92 NSCLC
HT29 colon = test system: HT29 colon
IGROV1 ovarian = test system: IGROV1 ovarian
K-562 leukemia = test system: K-562 leukemia
KM12 colon = test system: KM12 colon
LOX IMVI melanoma = test system: LOX IMVI melanoma
LXFL 529 NSCLC = test system: LXFL 529 NSCLC
M14 melanoma = test system: M14 melanoma
M19-MEL melanoma = test system: M19-MEL melanoma
MALME-3M melanoma = test system: MALME-3M melanoma
MOLT-4 leukemia = test system: MOLT-4 leukemia
NCI-H226 lung = test system: NCI-H226 lung
NCI-H23 lung = test system: NCI-H23 lung
NCI-H460 lung = test system: NCI-H460 lung
NCI-H522 lung = test system: NCI-H522 lung
OVCAR-3 ovarian = test system: OVCAR-3 ovarian
OVCAR-4 ovarian = test system: OVCAR-4 ovarian
OVCAR-5 ovarian = test system: OVCAR-5 ovarian
OVCAR-8 ovarian = test system: OVCAR-8 ovarian
RPMI-8226 leukemia = test system: RPMI-8226 leukemia
RXF 393 renal = test system: RXF 393 renal
RXF-631 renal = test system: RXF-631 renal
SF-268 CNS = test system: SF-268 CNS
SF-295 CNS = test system: SF-295 CNS
SF-539 CNS = test system: SF-539 CNS
SK-MEL-2 melanoma = test system: SK-MEL-2 melanoma
SK-MEL-28 melanoma = test system: SK-MEL-28 melanoma
SK-MEL-5 melanoma = test system: SK-MEL-5 melanoma
SK-OV-3 ovarian = test system: SK-OV-3 ovarian
SN12C renal = test system: SN12C renal
SNB-19 CNS = test system: SNB-19 CNS
SNB-75 CNS = test system: SNB-75 CNS
SNB-78 CNS = test system: SNB-78 CNS
SR leukemia = test system: SR leukemia
SW-620 colon = test system: SW-620 colon
TK-10 renal = test system: TK-10 renal
U251 CNS = test system: U251 CNS
UACC-257 melanoma = test system: UACC-257 melanoma
UACC-62 melanoma = test system: UACC-62 melanoma
UO-31 renal = test system: UO-31 renal

CC(C)(CN1CCCCC1)C(=O)/C=C/c1ccc(Cl)c(Cl)c1
TGI (786-0 renal): 2.69 µM
TGI (A498 renal): 3.09 µM
TGI (A549 NSCLC): 4.07 µM
TGI (ACHN renal): 2.88 µM
TGI (CCRF-CEM leukemia): 3.27 µM
TGI (COLO 205 colon): 2.85 µM
TGI (DLD-1 colon): 3.5 µM
TGI (DMS 114 small cell lung): 3.05 µM
TGI (DMS 273 small cell lung): 3.2 µM
TGI (EKVX NSCLC): 3.29 µM
TGI (HCC-2998 colon): 3.21 µM
TGI (HCT-116 colon): 3.08 µM
TGI (HCT-15 colon): 2.73 µM
TGI (HL-60(TB) leukemia): 3.4 µM
TGI (HOP-18 NSCLC): 2.85 µM
TGI (HOP-62 NSCLC): 3.8 µM
TGI (HOP-92 NSCLC): 2.34 µM
TGI (HT29 colon): 3.06 µM
TGI (IGROV1 ovarian): 4.15 µM
TGI (K-562 leukemia): 4.13 µM
TGI (KM12 colon): 3.25 µM
TGI (LOX IMVI melanoma): 2.76 µM
TGI (LXFL 529 NSCLC): 2.78 µM
TGI (M14 melanoma): 3.07 µM
TGI (M19-MEL melanoma): 3.21 µM
TGI (MALME-3M melanoma): 3.31 µM
TGI (MOLT-4 leukemia): 4.57 µM
TGI (NCI-H226 lung): 3.15 µM
TGI (NCI-H23 lung): 3.26 µM
TGI (NCI-H460 lung): 3.46 µM
TGI (NCI-H522 lung): 2.67 µM
TGI (OVCAR-3 ovarian): 2.94 µM
TGI (OVCAR-4 ovarian): 2.87 µM
TGI (OVCAR-5 ovarian): 3.08 µM
TGI (OVCAR-8 ovarian): > 100 µM
TGI (RPMI-8226 leukemia): 5.34 µM
TGI (RXF 393 renal): 2.42 µM
TGI (RXF-631 renal): 3.72 µM
TGI (SF-268 CNS): 3.74 µM
TGI (SF-295 CNS): 5.86 µM
TGI (SF-539 CNS): 4.6 µM
TGI (SK-MEL-2 melanoma): 3.18 µM
TGI (SK-MEL-28 melanoma): 3.37 µM
TGI (SK-MEL-5 melanoma): 3.5 µM
TGI (SK-OV-3 ovarian): 7.51 µM
TGI (SN12C renal): 2.92 µM
TGI (SNB-19 CNS): 12.2 µM
TGI (SNB-75 CNS): 3.13 µM
TGI (SNB-78 CNS): 4.5 µM
TGI (SR leukemia): 4.69 µM
TGI (SW-620 colon): 2.94 µM
TGI (TK-10 renal): 2.8 µM
TGI (U251 CNS): 2.7 µM
TGI (UACC-257 melanoma): 2.41 µM
TGI (UACC-62 melanoma): 4.06 µM
TGI (UO-31 renal): 2.99 µM
